# Assays:
# [1] = Binding to Park's nucleotide, Kd by 1H NMR titration; parameters: species or system Bacillus subtilis; conditions: for Kd: 20% DMSO, NMR titration
# Procedure: Fibril formation is observed in vitro and serves as a convenient predictor of PG complexation in vitro. […] Therefore, DMSO allows for the determination of binding affinity (Kd) values and characterization of the binding interface by Nuclear Magnetic Resonance spectroscopy (NMR).
# (§1) Mass spectra were recorded on commercially available spectrometers and HPLC was performed on a commercially available columns. Both the NMR spectroscopy and transmission electron micrographs were performed in a manner known to one of ordinary skill in the art. Fmoc-amino acids and deuterated solvents were purchased from a commercial supplier. Measurement of dissociation constants was performed by NMR.
# (§2) UDP-MurNAc-L-Ala-γ-D-Glu-L-Dap-D-Ala-D-Ala pentapeptide (Park's nucleotide) and UDP-MurNAc-L-Ala-γ-D-Glu-L-Dap tripeptide were isolated from Bacillus subtilis by methods known to those of ordinary skill in the art.
# (§3) The resultant antibacterial compound was then titrated against a solution of the cytoplasmic PG biosynthetic precursor of lipid II, Park's nucleotide. Isothermal titration calorimetry experiments were used to measure the interaction between the antibacterial compound and Park's nucleotide. The experiments were performed at 25° C. using a titration microcalorimeter equipped with a 250 μL injection syringe and a 400 rpm stirring rate. Both the, antibacterial compound and Park's nucleotide were dissolved in water and vacuum degassed before use. Park's nucleotide (20×10 μL injection of a 5.4 mM solution) was injected into an ITC cell containing ca. 1.3 mL of the antibacterial compound (1 mM). Control experiments were performed under identical conditions by injection of the compound into water alone, Park's nucleotide into water, and the reverse experiment of titrating water into solution of the antibacterial compound or Park's nucleotide. […] The complex pattern of heat released during the titration is indicative of ligand-induced aggregation. Insoluble fibrils were produced from soluble fibril preparations by increasing the ionic strength to greater than or equal to 100 mM.
# [2] = Binding to UDP-MurNAc tripeptide lipid II precursor, NMR titration; parameters: species or system Bacillus subtilis; conditions: for Complexation/binding with UDP-MurNAc-L-Ala-γ-D-Glu-L-Dap tripeptide: NMR analysis / titration
# Procedure: as §1, §2, §3
# The resultant antibacterial compound still maintains the side-chain amine cationic charge. […] These values indicate that there was a strong affinity of the antibacterial compound to the two lipid II precursors.
# [3] = Isothermal titration calorimetry with Park's nucleotide; assay type: binding, Bacillus subtilis; conditions: 25° C., water, Park's nucleotide 5.4 mM injected into 1 mM compound
# Procedure: as §3
# Gram positive bacteria = experiment: Antibiotic activity; assay type: cell-based
substance,measurement,setting,value
"cyclic (lactone) antibacterial compound containing octapeptide -Hpg-Orn-Thr-Hpg-Hpg-Thr-Phe-Orn-, diguanidylated at the ornithine residues [Example 1]",Kd,[1],170 µM
same,Complexation with Park's nucleotide by NMR,[1]; NMR analysis,"clear evidence of complexation and formation of a large, soluble aggregate"
same,Complexation/binding with UDP-MurNAc-L-Ala-γ-D-Glu-L-Dap tripeptide,[2],"clear evidence of complexation and formation of a large, soluble aggregate"
same,Ligand-induced aggregation during ITC titration,[3],ligand-induced aggregation occurred
"cyclic (lactone) compound containing octapeptide -Hpg-Orn-Thr-Hpg-Hpg-Thr-Phe-Orn-, diacetylated at the ornithine residues; lacks the side-chain cationic charge [Comparative Example A, reference compound]",Kd,[1],1340 ± 320 µM
same,Decrease in binding affinity with Park's nucleotide,[1]; titration experiments,~10 fold
same,Complexation/binding with UDP-MurNAc-L-Ala-γ-D-Glu-L-Dap tripeptide,[2],failed to show detectable binding
same,Antibiotic activity,Gram positive bacteria,markedly reduced
"cyclic (lactone) compound containing octapeptide -Hpg-Orn-Thr-Hpg-Hpg-Thr-Phe-Orn-, ornithine residues modified into secondary amines with isovaleraldehyde [Example 2]",Kd,[1],130 ± 20 µM
same,Kd,"[2]; titration as in example 1, read-out: Kd value with UDP-MurNAc-L-Ala-γ-D-Glu-L-Dap tripeptide",1.28 ± 0.14 mM
